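The compound was tested at five concentrations on cells cultured in 96-well plates, with a 48-hour exposure period. TGI: total growth inhibition.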
How the values were obtained:
Experiment in all cases: NCI anticancer screen, dose series, 48 h
786-0 renal = tested on: 786-0 renal
A498 renal = tested on: A498 renal
A549 NSCLC = tested on: A549 NSCLC
ACHN renal = tested on: ACHN renal
BT-549 breast = tested on: BT-549 breast
CAKI-1 renal = tested on: CAKI-1 renal
CCRF-CEM leukemia = tested on: CCRF-CEM leukemia
COLO 205 colon = tested on: COLO 205 colon
DU-145 prostate = tested on: DU-145 prostate
EKVX NSCLC = tested on: EKVX NSCLC
HCT-116 colon = tested on: HCT-116 colon
HCT-15 colon = tested on: HCT-15 colon
HL-60(TB) leukemia = tested on: HL-60(TB) leukemia
HOP-62 NSCLC = tested on: HOP-62 NSCLC
HOP-92 NSCLC = tested on: HOP-92 NSCLC
HS 578T breast = tested on: HS 578T breast
HT29 colon = tested on: HT29 colon
IGROV1 ovarian = tested on: IGROV1 ovarian
K-562 leukemia = tested on: K-562 leukemia
KM12 colon = tested on: KM12 colon
LOX IMVI melanoma = tested on: LOX IMVI melanoma
M14 melanoma = tested on: M14 melanoma
MALME-3M melanoma = tested on: MALME-3M melanoma
MCF7 breast = tested on: MCF7 breast
MDA-MB-231 breast = tested on: MDA-MB-231 breast
MDA-MB-435 = tested on: MDA-MB-435
MDA-N = tested on: MDA-N
MOLT-4 leukemia = tested on: MOLT-4 leukemia
NCI-H226 lung = tested on: NCI-H226 lung
NCI-H23 lung = tested on: NCI-H23 lung
NCI-H460 lung = tested on: NCI-H460 lung
NCI-H522 lung = tested on: NCI-H522 lung
NCI/ADR-RES ovarian = tested on: NCI/ADR-RES ovarian
OVCAR-3 ovarian = tested on: OVCAR-3 ovarian
OVCAR-4 ovarian = tested on: OVCAR-4 ovarian
OVCAR-5 ovarian = tested on: OVCAR-5 ovarian
OVCAR-8 ovarian = tested on: OVCAR-8 ovarian
PC-3 prostate = tested on: PC-3 prostate
RPMI-8226 leukemia = tested on: RPMI-8226 leukemia
RXF 393 renal = tested on: RXF 393 renal
SF-268 CNS = tested on: SF-268 CNS
SF-295 CNS = tested on: SF-295 CNS
SF-539 CNS = tested on: SF-539 CNS
SK-MEL-2 melanoma = tested on: SK-MEL-2 melanoma
SK-MEL-28 melanoma = tested on: SK-MEL-28 melanoma
SK-OV-3 ovarian = tested on: SK-OV-3 ovarian
SN12C renal = tested on: SN12C renal
SNB-19 CNS = tested on: SNB-19 CNS
SNB-75 CNS = tested on: SNB-75 CNS
SW-620 colon = tested on: SW-620 colon
T-47D breast = tested on: T-47D breast
TK-10 renal = tested on: TK-10 renal
U251 CNS = tested on: U251 CNS
UACC-257 melanoma = tested on: UACC-257 melanoma
UACC-62 melanoma = tested on: UACC-62 melanoma
UO-31 renal = tested on: UO-31 renal
HCC-2998 colon = tested on: HCC-2998 colon
SK-MEL-5 melanoma = tested on: SK-MEL-5 melanoma

Compound: C=C1C(=O)C2=C[C@H]1C[C@H](O)C(=O)[C@]1(C)CCCC(C)(C)[C@H]1C[C@H]2O
- TGI (786-0 renal): 2.14 µM
- TGI (A498 renal): 3.73 µM
- TGI (A549 NSCLC): 2.81 µM
- TGI (ACHN renal): 1.65 µM
- TGI (BT-549 breast): 5.66 µM
- TGI (CAKI-1 renal): 2.85 µM
- TGI (CCRF-CEM leukemia): 0.326 µM
- TGI (COLO 205 colon): 1.85 µM
- TGI (DU-145 prostate): 4.04 µM
- TGI (EKVX NSCLC): 3.31 µM
- TGI (HCT-116 colon): 3 µM
- TGI (HCT-15 colon): 1.96 µM
- TGI (HL-60(TB) leukemia): 1.03 µM
- TGI (HOP-62 NSCLC): 25.5 µM
- TGI (HOP-92 NSCLC): 3.01 µM
- TGI (HS 578T breast): 8.61 µM
- TGI (HT29 colon): 2.85 µM
- TGI (IGROV1 ovarian): 12.8 µM
- TGI (K-562 leukemia): 0.824 µM
- TGI (KM12 colon): 5.78 µM
- TGI (LOX IMVI melanoma): 2.14 µM
- TGI (M14 melanoma): 2.85 µM
- TGI (MALME-3M melanoma): 2.05 µM
- TGI (MCF7 breast): 1.63 µM
- TGI (MDA-MB-231 breast): 2.64 µM
- TGI (MDA-MB-435): 10.2 µM
- TGI (MDA-N): 4.06 µM
- TGI (MOLT-4 leukemia): 10.3 µM
- TGI (NCI-H226 lung): 23 µM
- TGI (NCI-H23 lung): 3.15 µM
- TGI (NCI-H460 lung): 8.77 µM
- TGI (NCI-H522 lung): 1.41 µM
- TGI (NCI/ADR-RES ovarian): 3.16 µM
- TGI (OVCAR-3 ovarian): 4 µM
- TGI (OVCAR-4 ovarian): 19.2 µM
- TGI (OVCAR-5 ovarian): 3.72 µM
- TGI (OVCAR-8 ovarian): 5.93 µM
- TGI (PC-3 prostate): 3.62 µM
- TGI (RPMI-8226 leukemia): 1.02 µM
- TGI (RXF 393 renal): 1.3 µM
- TGI (SF-268 CNS): 13.9 µM
- TGI (SF-295 CNS): 20.5 µM
- TGI (SF-539 CNS): 2.6 µM
- TGI (SK-MEL-2 melanoma): 20.9 µM
- TGI (SK-MEL-28 melanoma): 3.44 µM
- TGI (SK-OV-3 ovarian): 25.4 µM
- TGI (SN12C renal): 4.07 µM
- TGI (SNB-19 CNS): 29.8 µM
- TGI (SNB-75 CNS): 17.4 µM
- TGI (SW-620 colon): 1.95 µM
- TGI (T-47D breast): 2.36 µM
- TGI (TK-10 renal): 2.08 µM
- TGI (U251 CNS): 2.6 µM
- TGI (UACC-257 melanoma): 4.27 µM
- TGI (UACC-62 melanoma): 3.05 µM
- TGI (UO-31 renal): 5.27 µM

Compound: Cc1ccc2c3c4c(ccc13)C(C)(C)OC4=C(C(C)C)C2=O
- TGI (786-0 renal): > 100 µM
- TGI (A498 renal): > 100 µM
- TGI (A549 NSCLC): > 100 µM
- TGI (ACHN renal): > 100 µM
- TGI (BT-549 breast): > 100 µM
- TGI (CAKI-1 renal): > 100 µM
- TGI (CCRF-CEM leukemia): > 100 µM
- TGI (COLO 205 colon): > 100 µM
- TGI (DU-145 prostate): > 100 µM
- TGI (EKVX NSCLC): > 100 µM
- TGI (HCC-2998 colon): > 100 µM
- TGI (HCT-116 colon): > 100 µM
- TGI (HCT-15 colon): > 100 µM
- TGI (HL-60(TB) leukemia): > 100 µM
- TGI (HOP-62 NSCLC): 29 µM
- TGI (HOP-92 NSCLC): > 100 µM
- TGI (HS 578T breast): 55.2 µM
- TGI (HT29 colon): 39.2 µM
- TGI (IGROV1 ovarian): > 100 µM
- TGI (K-562 leukemia): > 100 µM
- TGI (KM12 colon): > 100 µM
- TGI (M14 melanoma): > 100 µM
- TGI (MALME-3M melanoma): > 100 µM
- TGI (MCF7 breast): > 100 µM
- TGI (MDA-MB-231 breast): > 100 µM
- TGI (MDA-MB-435): > 100 µM
- TGI (MDA-N): > 100 µM
- TGI (MOLT-4 leukemia): > 100 µM
- TGI (NCI-H226 lung): 27.9 µM
- TGI (NCI-H23 lung): > 100 µM
- TGI (NCI-H460 lung): > 100 µM
- TGI (NCI-H522 lung): > 100 µM
- TGI (NCI/ADR-RES ovarian): > 100 µM
- TGI (OVCAR-3 ovarian): 26.8 µM
- TGI (OVCAR-4 ovarian): > 100 µM
- TGI (OVCAR-5 ovarian): > 100 µM
- TGI (OVCAR-8 ovarian): > 100 µM
- TGI (PC-3 prostate): 27.6 µM
- TGI (RPMI-8226 leukemia): > 100 µM
- TGI (RXF 393 renal): > 100 µM
- TGI (SF-268 CNS): > 100 µM
- TGI (SF-295 CNS): > 100 µM
- TGI (SF-539 CNS): > 100 µM
- TGI (SK-MEL-2 melanoma): 30.7 µM
- TGI (SK-MEL-28 melanoma): > 100 µM
- TGI (SK-MEL-5 melanoma): > 100 µM
- TGI (SK-OV-3 ovarian): > 100 µM
- TGI (SN12C renal): > 100 µM
- TGI (SNB-19 CNS): > 100 µM
- TGI (SNB-75 CNS): > 100 µM
- TGI (SW-620 colon): > 100 µM
- TGI (T-47D breast): > 100 µM
- TGI (TK-10 renal): > 100 µM
- TGI (U251 CNS): > 100 µM
- TGI (UACC-257 melanoma): > 100 µM
- TGI (UACC-62 melanoma): > 100 µM
- TGI (UO-31 renal): > 100 µM

Compound: CN(C)c1ccc(/C=C2\N=C(N/N=C/c3ccc(N(C)C)cc3)NC2=O)cc1
- TGI (786-0 renal): > 100 µM
- TGI (A498 renal): > 100 µM
- TGI (A549 NSCLC): > 100 µM
- TGI (ACHN renal): > 100 µM
- TGI (BT-549 breast): > 100 µM
- TGI (CAKI-1 renal): > 100 µM
- TGI (CCRF-CEM leukemia): > 100 µM
- TGI (COLO 205 colon): > 100 µM
- TGI (DU-145 prostate): 96 µM
- TGI (EKVX NSCLC): > 100 µM
- TGI (HCC-2998 colon): > 100 µM
- TGI (HCT-116 colon): > 100 µM
- TGI (HCT-15 colon): > 100 µM
- TGI (HL-60(TB) leukemia): > 100 µM
- TGI (HOP-62 NSCLC): > 100 µM
- TGI (HOP-92 NSCLC): 98.4 µM
- TGI (HS 578T breast): > 100 µM
- TGI (HT29 colon): > 100 µM
- TGI (IGROV1 ovarian): > 100 µM
- TGI (KM12 colon): > 100 µM
- TGI (M14 melanoma): > 100 µM
- TGI (MALME-3M melanoma): > 100 µM
- TGI (MCF7 breast): > 100 µM
- TGI (MDA-MB-231 breast): > 100 µM
- TGI (MDA-MB-435): > 100 µM
- TGI (MDA-N): > 100 µM
- TGI (MOLT-4 leukemia): > 100 µM
- TGI (NCI-H226 lung): > 100 µM
- TGI (NCI-H23 lung): > 100 µM
- TGI (NCI-H460 lung): > 100 µM
- TGI (NCI-H522 lung): > 100 µM
- TGI (NCI/ADR-RES ovarian): > 100 µM
- TGI (OVCAR-3 ovarian): > 100 µM
- TGI (OVCAR-4 ovarian): > 100 µM
- TGI (OVCAR-5 ovarian): > 100 µM
- TGI (OVCAR-8 ovarian): 72.7 µM
- TGI (PC-3 prostate): > 100 µM
- TGI (RPMI-8226 leukemia): > 100 µM
- TGI (RXF 393 renal): 53.8 µM
- TGI (SF-268 CNS): > 100 µM
- TGI (SF-295 CNS): > 100 µM
- TGI (SK-MEL-2 melanoma): > 100 µM
- TGI (SK-MEL-28 melanoma): > 100 µM
- TGI (SK-MEL-5 melanoma): > 100 µM
- TGI (SK-OV-3 ovarian): > 100 µM
- TGI (SN12C renal): > 100 µM
- TGI (SNB-19 CNS): > 100 µM
- TGI (SNB-75 CNS): > 100 µM
- TGI (SW-620 colon): > 100 µM
- TGI (T-47D breast): > 100 µM
- TGI (TK-10 renal): > 100 µM
- TGI (U251 CNS): > 100 µM
- TGI (UACC-257 melanoma): > 100 µM
- TGI (UACC-62 melanoma): > 100 µM
- TGI (UO-31 renal): > 100 µM

From PubChem BioAssay (NCI)
